Several values for one entry are separate records, joined by “and”; a condition that tells them apart may be missing. Equal values may be shown once. Entries after “also recorded” stand apart in the source; their conditions may differ.
Key:
ileum (HCO3− secretion) = assay: pH stat HCO3− secretion in ileum; type: cell-based, mouse; conditions: for Effect on lumen Cl−-independent HCO3− secretion stimulated by glucose: 100 μM on lumen side, 6 mM glucose
Protocol: pH stat studies are performed to determine whether HCO3^− secretion contributes to the unaccounted portion of the Isc. At least two modes of HCO3^− secretion in the mouse small intestine have been identified by the present inventors: 1) Cl^−-dependent, electroneutral Cl^−—HCO3^− exchange, and 2) Cl^−-independent, electrogenic HCO3^− secretion. […] Specifically, HCO3^−-free, poorly buffered solution is added to both sides of the tissues mounted in an Ussing chamber and both sides of the tissues are bubbled with 100% O2. Minimal HCO3^− secretion (0.1±0.01 mEq.h^−1.cm^−2, n=12) is recorded under such conditions. Subsequent addition of HCO3^−-containing buffered solution to the basolateral side and bubbling with 95% O2 and 5% CO2 on that side results in significant HCO3^− secretion 3.8±0.2 mEq.h^−1.cm^−2 (n=9). To determine whether lumen Cl^−-independent HCO3^− secretion plays a role in HCO3^− secretion (in the absence of lumen glucose), pH stat experiments are performed in the absence of lumen Cl^−. In the absence of lumen Cl^−, minimal HCO3^− secretion is recorded (0.4±0.1 pEq.h^−1.cm^−2) (FIG. 5A). […] The HCO3^− secretion in the presence of glucose could be due to a lumen Cl^−-dependent, electroneutral Cl—HCO3^− exchange or a lumen Cl^−-independent anion channel-mediated HCO3^− secretion. To assess the mechanism of glucose-stimulated HCO3^− secretion, glucose is added to the mucosal side.

Caco-2 cells = assay: Confocal Ca2+ fluorescence microscopy (Fluo-8) in Caco-2 cells; type: cell-based
Protocol: Caco-2 cells are obtained from ATTC and cultured in Dulbecoo's modified Eagle's medium supplemented with 10% fetal calf serum (FCS) and 1% nonessential amino acids at 37° C. and 5% CO2. Caco-2 cells are passaged for 20-25 times and are seeded (2×10^5 cells/dish) on 5 cm petri-dishes and grown until 80% confluence, when the FCS concentration is changed to 5%. Cells are grown for another 10 days before they are used for functional studies.
Caco2 cells grown in 25 mm round coverslips are mounted on the bath chamber RC-21BR attached to series 20 stage adapter (Warner Instruments, CT USA). […] Fluorescence is recorded by argon lasers with excitation at 488 nm and emission at 515 nm. […] Changes are recorded and fluorescence is measured for various cells. […]
To determine the role of intracellular Ca^2+ in glucose-stimulated increase in Isc, intracellular Ca^2+ level is measured in the presence of different concentrations of glucose and 3-OMG, respectively, and in the presence of BAPTA-AM (1,2-bis(o-aminophenoxy)ethane-N,N,N′,N′-tetraacetic acid)—an intracellular calcium-specific chelator. The Ca^2+ responses to glucose and 3-OMG in cultured Caco2 cells loaded with the Ca^2+ indicator fluo 8 are monitored by laser scanning confocal microscopy. […] The mean peak amplitude of calcium fluorescence (F/Fo) with 0.6 mM glucose is calculated to be 1.32±0.1 (n=10).

SGLT1 = molecular target: T1, SGLT1 (Mus musculus, UniProt Q8C3K6); assay: Saturation kinetics of Na+-coupled glucose / 3-OMG transport (Isc, Ussing chamber, ileal sheets); type: cell-based
T1 construct: from tissue; host or cells: ileal mucosa of NIH Swiss mice
T1 sequence (Q8C3K6 1-665): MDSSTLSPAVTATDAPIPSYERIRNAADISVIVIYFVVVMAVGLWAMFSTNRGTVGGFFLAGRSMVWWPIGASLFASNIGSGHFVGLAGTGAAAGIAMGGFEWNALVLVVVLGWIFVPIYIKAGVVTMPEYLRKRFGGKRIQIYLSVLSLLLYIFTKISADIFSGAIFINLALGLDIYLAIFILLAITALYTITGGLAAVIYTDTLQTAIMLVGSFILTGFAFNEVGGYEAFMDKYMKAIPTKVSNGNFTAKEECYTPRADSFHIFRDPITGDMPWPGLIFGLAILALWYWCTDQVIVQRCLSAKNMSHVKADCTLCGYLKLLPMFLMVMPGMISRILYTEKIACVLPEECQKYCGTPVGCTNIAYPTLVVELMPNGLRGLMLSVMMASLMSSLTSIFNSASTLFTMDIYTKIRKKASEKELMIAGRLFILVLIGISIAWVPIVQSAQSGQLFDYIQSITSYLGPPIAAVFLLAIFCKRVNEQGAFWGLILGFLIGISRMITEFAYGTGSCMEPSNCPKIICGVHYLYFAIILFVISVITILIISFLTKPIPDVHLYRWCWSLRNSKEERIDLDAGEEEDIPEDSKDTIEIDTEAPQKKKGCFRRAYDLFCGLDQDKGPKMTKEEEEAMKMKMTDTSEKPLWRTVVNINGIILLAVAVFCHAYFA
Text: (§1) Normally fed, 8-week-old, male NIH Swiss mice are sacrificed by CO2 inhalation, followed by cervical dislocation. The small intestine is gently removed, and the segment is washed and flushed in ice-cold Ringer's solution. Then the mucosa is separated from the serosa and the muscular layers by striping through the submucosal plane as previously described (Zhang et al. (2007) J Physiol 581(3):1221-1233). Following exsanguinations, ileal mucosa is obtained from a 10 cm segment close to the caecum. All experiments are approved by the University of Florida Institutional Animal Care and Use Committee.
(§2) Ion transport studies are performed on ileal sheets. Tissues are then mounted in between the two halves of an Ussing type-Lucite chamber with 0.3 cm^−2 exposed surface areas (P2304, Physiologic Instruments, San Diego, Calif., USA). […] The basal short-circuit current (Isc) and the corresponding conductance (G) are recorded using a computer controlled voltage/current clamp device (VCC MC-8, Physiologic Instruments).
(§3) Tissues paired with similar conductance and current are treated with or without 100 μM H-89 (Santa Cruz Biotechnology, Inc, Santa Cruz, Calif.), an irreversible protein kinase A (PKA) inhibitor. […] Saturation kinetic constant is calculated for the corresponding Km and Vmax for treated and untreated tissues. […]

[1] = tested on: intracellular cAMP in ileal epithelial cells; assay: Colorimetric intracellular cAMP measurement in ileal villus and crypt cells; type: cell-based, mouse; conditions: villus cells
Protocol: Freshly isolated mucosal scrapings of ileal epithelial cells are washed three times in Ringer's solution containing 1.2 mM Ca^2+ at 37° C. […] Cells are treated with 0.1 M HCl to stop endogenous phosphodiesterase activity. The lysates are then used for cAMP assay using cAMP direct immunoassay kit (Calbiochem, USA). The quantitative assay of cAMP uses a polyclonal antibody to cAMP that binds to cAMP in samples in a competitive manner. After a simultaneous incubation at room temperature, the excess reagents are washed away and substrates are added. After a short incubation time, the reaction is stopped and the yellow color generated is read at 405 nm. The intensity of the color is inversely proportional to the concentration of cAMP in standards and samples. cAMP levels are standardized to protein levels from respective fractions and expressed in pmol (mg protein)^−1. Forskolin treated cells are used as a positive control. Glucose and forskolin treated cells are incubated for 45 minutes. All the assays are performed in triplicate and repeated until n=4 different mice.

mouse ileum = assay: Bio-electric measurement of short-circuit current (Isc) in ileal sheets, Ussing chamber; type: cell-based; conditions: for Effect on glucose- or 3-OMG-stimulated increase in Isc: tissues pre-treated with H-89
Text: as §1
Ion transport studies are performed on ileal sheets. Tissues are then mounted in between the two halves of an Ussing type-Lucite chamber with 0.3 cm^−2 exposed surface areas (P2304, Physiologic Instruments, San Diego, Calif., USA). Regular Ringer's solution (115 mM NaCl, 25 mM NaHCO3, 4.8 mM K2HPO4, 2.4 mM KH2PO4, 1.2 mM MgCl2 and 1.2 mM CaCl2) bubbled with 95% O2: 5% CO2 is used bilaterally as bathing solution for the tissues and the temperature is maintained constant at 37° C. The chambers are balanced to eliminate osmotic and hydrostatic forces. Resistance due to fluid is also compensated. The tissues are allowed to stabilize. The basal short-circuit current (Isc) and the corresponding conductance (G) are recorded using a computer controlled voltage/current clamp device (VCC MC-8, Physiologic Instruments).
Tissues paired with similar conductance and current are treated with or without 100 μM H-89 (Santa Cruz Biotechnology, Inc, Santa Cruz, Calif.), an irreversible protein kinase A (PKA) inhibitor. The tissues are incubated with H-89 for 30 minutes. Increasing concentrations of glucose (0.015-8 mM) are added every 5 minutes and the peak current is noted. Saturation kinetic constant is calculated for the corresponding Km and Vmax for treated and untreated tissues.
To investigate whether inhibition of glucose transport abolishes PKA-sensitive current, experiments are conducted using phlorizin (Santa Cruz Biotechnology, Inc, Santa Cruz, Calif., USA), a reversible competitive inhibitor of SGLT1. Specifically, ileal tissues mounted in Ussing chamber are treated with 100 μM phlorizin on the lumen side and glucose saturation kinetic studies are conducted.

[2] = substrate: CO[C@@H]([C@H](O)[C@H](O)CO)[C@@H](O)C=O; assay: Saturation kinetics of Na+-coupled glucose / 3-OMG transport (Isc, Ussing chamber, ileal sheets); type: cell-based, mouse; conditions: 37.0 °C
Text: as §1, §2, §3

[3] = FIG. 5B, lumen Cl− present, 100 μM DIDS, 10 μM NPPB

In the case of O=S(=O)(O)c1cc(N=C=S)ccc1C=Cc1ccc(N=C=S)cc1S(=O)(=O)O [DIDS, 4,4′-diisothiocyano-2,2′-stilbenedisulfonic acid], the “Effect on HCO3− secretion in the absence of glucose” value (ileum (HCO3− secretion); [3]) is reported as “abolishes HCO3^− secretion”.

For CO[C@@H]([C@H](O)[C@H](O)CO)[C@@H](O)C=O [Formulation 3-OMG, 3-O-methylglucose], the “Mean peak amplitude of calcium fluorescence (F/Fo)” value (Caco-2 cells; 0.6 mM in bath medium, n=10) was 1.2±0.1 and 1.2±0.2, the “Mean peak amplitude of calcium fluorescence (F/Fo)” value (Caco-2 cells; 6 mM in bathing medium) was 1.5±0.1 and the Vmax (SGLT1; Table 1, no PKA inhibitor, n = 8 tissues) was 2.7 ± 0.1. For the same molecule, the Vmax (SGLT1; Table 1, with H-89, n = 8 tissues) was 1.4 ± 0.1, the “Intracellular cAMP level compared to 6 mM glucose” value ([1]; 3-OMG 6 mM, P<0.01) was “significantly higher” and the “Intracellular cAMP level” value ([1]; 3-OMG 0.6 and 6 mM, 45 minutes) was “significant increase”. For the same molecule, the “HCO3− secretion” value (ileum (HCO3− secretion); 6 mM 3-OMG, absence of lumen and bath HCO3−) was 0.1±0.03 μEq.h^−1.cm^−2.

O=S(=O)(NCCNC/C=C/c1ccc(Br)cc1)c1cccc2cnccc12 [Formulation H-89] was tested, and the “Effect on glucose- or 3-OMG-stimulated increase in Isc” value (mouse ileum) was “significant decrease in Isc” and the “Effect on glucose- or 3-OMG-stimulated increase in Isc” value (mouse ileum; listed as H89) was “significant reduction”.

For COc1ccc(Cl)cc1C(=O)NCCc1ccc(S(=O)(=O)NC(=O)NC2CCCCC2)cc1 [Glibenclamide, glibenclamide], the “Effect on lumen Cl−-independent HCO3− secretion stimulated by glucose” value (ileum (HCO3− secretion)) was “inhibits”.

In the case of O=C(O)c1cc([N+](=O)[O-])ccc1NCCCc1ccccc1 [NPPB, 5-nitro-2-(3-phenylpropylamino)-benzoic acid], the “Effect on lumen Cl−-independent HCO3− secretion stimulated by glucose” value (ileum (HCO3− secretion)) is reported as “inhibits”, the “Effect on HCO3− secretion in the absence of glucose” value (ileum (HCO3− secretion); [3]) is reported as “does not have any inhibitory effect” and the “Effect on HCO3− secretion in the presence of 6 mM glucose” value (ileum (HCO3− secretion); [3]) is reported as “inhibits”.

In the case of N=C(N)NC(=O)c1nc(Cl)c(N)nc1N [amiloride], the “Effect on Isc” value (mouse ileum; 10 μM on mucosal side of small intestine) is reported as “no effect”.

In the case of O=C(CCc1ccc(O)cc1)c1c(O)cc(O)cc1O[C@@H]1O[C@H](CO)[C@@H](O)[C@H](O)[C@H]1O [phlorizin], the “Effect on glucose- and/or 3-OMG-stimulated increase in Isc” value (mouse ileum; 100 μM phlorizin on lumen side) is reported as “no response; also recorded: completely abolished”.

B1: SGLT1 (Mus musculus) (protein)
chain: MDSSTLSPAVTATDAPIPSYERIRNAADISVIVIYFVVVMAVGLWAMFSTNRGTVGGFFLAGRSMVWWPIGASLFASNIGSGHFVGLAGTGAAAGIAMGGFEWNALVLVVVLGWIFVPIYIKAGVVTMPEYLRKRFGGKRIQIYLSVLSLLLYIFTKISADIFSGAIFINLALGLDIYLAIFILLAITALYTITGGLAAVIYTDTLQTAIMLVGSFILTGFAFNEVGGYEAFMDKYMKAIPTKVSNGNFTAKEECYTPRADSFHIFRDPITGDMPWPGLIFGLAILALWYWCTDQVIVQRCLSAKNMSHVKADCTLCGYLKLLPMFLMVMPGMISRILYTEKIACVLPEECQKYCGTPVGCTNIAYPTLVVELMPNGLRGLMLSVMMASLMSSLTSIFNSASTLFTMDIYTKIRKKASEKELMIAGRLFILVLIGISIAWVPIVQSAQSGQLFDYIQSITSYLGPPIAAVFLLAIFCKRVNEQGAFWGLILGFLIGISRMITEFAYGTGSCMEPSNCPKIICGVHYLYFAIILFVISVITILIISFLTKPIPDVHLYRWCWSLRNSKEERIDLDAGEEEDIPEDSKDTIEIDTEAPQKKKGCFRRAYDLFCGLDQDKGPKMTKEEEEAMKMKMTDTSEKPLWRTVVNINGIILLAVAVFCHAYFA
notes: Ion transport studies are performed on ileal sheets; from tissue; host or cells: ileal mucosa of NIH Swiss mice
B1 showed a Km ([2]; other: Table 1, no PKA inhibitor, n = 8 tissues) of 200 µM and a Km ([2]; other: increasing lumen concentrations up to 8 mM, 140 mM Na+, no inhibitor) of 220 ± 70 µM.
